Experimental findings from ChEMBL document CHEMBL1123353, “3,17 beta-Dihydroxy-20,21-epoxy-19-norpregna-1,3,5(10)-trienes: synthesis, rearrangement, cytotoxicity, and estrogen-receptor binding” (J Med Chem, 1986) are described below.

For one assay, the system named is GH3. Put plainly: Compound was evaluated for toxicity against GH3 cells. Format: functional, cell-based. Conditions: Rattus norvegicus.
The subject of another assay is HeLa. Put plainly: Compound was evaluated for toxicity against HeLa S3 cells. Format: functional, cell-based. Conditions: Homo sapiens.

The IC50 is the point on the concentration scale where inhibition reaches its midpoint. Higher therefore signals lower potency.

Consider `C[C@]12CC[C@@H]3c4ccc(O)cc4CC[C@H]3[C@@H]1CC[C@@]2(O)[C@H]1CO1`, for which the IC50 amounted to 5.5 µM with GH3 and 6.5 µM in the assay on HeLa.

In the assay on HeLa, `C[C@]12CC[C@@H]3c4ccc(OC(=O)N(CCCl)CCCl)cc4CC[C@H]3[C@@H]1CC[C@@H]2O` [ESTRAMUSTINE] came in with an IC50 of 3.4 µM.

On to `C=C[C@@]12COC(=O)C(=C)[C@@H]1[C@H]1OC(=O)C(=C)[C@@H]1[C@@H](O)C2` [VERNOLEPIN], for which the IC50 in the assay with GH3 stood at 5.2 µM; in the assay with HeLa, 3.5 µM.

Consider `C[C@]12CC[C@@H]3c4ccc(O)cc4CC[C@H]3[C@@H]1CC[C@@]2(O)[C@@H]1CO1`, for which the results for the 50% inhibitory concentration (IC50) in the assay on GH3 and in the assay with HeLa were 17.7 µM and 18.6 µM, respectively.
